Holding throughout (type): cell-based
In assay [1] the test system is Pseudomonas aeruginosa K79961. Put plainly: MIC by serial dilution in Iso-Sensitest Agar, P. aeruginosa K79961. Conditions: 24 h, overnight at 37° C. The method, then: (§1) Minimum Inhibitory Concentration (MIC) values of compounds of the invention against P. mirabilis C977, S. marcescens US 32, and P. aeruginosa K79961 were determined by serial dilution in Iso-Sensitest Agar (from Oxiod Ltd., Basinstoke, England). The plates were inoculated with […] colony forming units and incubated overnight at 37° C. The MIC values recorded in Table 1 were the lowest concentration of antibiotic to inhibit growth. Comparative data for sodium 7β[2-(3,4-diacetoxyphenyl)-2-[(4-ethyl-2,3-dioxopiperazin-1yl)carbonylamino]acetomido]-7α-formamido-3-[(2-methyl-1,3,4-thiadiazol-5yl)thiomethyl]ceph-3em-4-carboxylate (Compound A), disclosed in European Patent Application No. 82303821.1 (Publication No. 0 071 395) are also given.

In assay [2] the test system is Proteus mirabilis C977. Put plainly: MIC by serial dilution in Iso-Sensitest Agar, P. mirabilis C977. Conditions: 24 h, overnight at 37° C. As to the method:
as §1

For assay [3], the system named is Serratia marcescens US 32. Put plainly: MIC by serial dilution in Iso-Sensitest Agar, S. marcescens US 32. Conditions: US32, 24 h, overnight at 37° C. The method, then:
as §1

The term MIC denotes the smallest concentration in the dilution series that meets the test's criterion for growth inhibition. On to `CCN1CCN(C(=O)NC(C(=O)N[C@]2(NC=O)C(=O)N3C(C(=O)O)=C(CSc4nnc(C)s4)CS[C@@H]32)c2ccc(OC(C)=O)c(OC(C)=O)c2)C(=O)C1=O` (stereo partly drawn) [Compound A, sodium 7β[2-(3,4-diacetoxyphenyl)-2-[(4-ethyl-2,3-dioxopiperazin-1yl)carbonylamino]acetomido]-7α-formamido-3-[(2-methyl-1,3,4-thiadiazol-5yl)thiomethyl]ceph-3em-4-carboxylate, reference compound], for which the MIC in assay [1] came out at 2 µg/mL; in assay [2], 4 µg/mL; in assay [3] it was 1 µg/mL.
In the case of `CCN1CCN(C(=O)N[C@@H](C(=O)N[C@]2(NC=O)C(=O)N3C(C(=O)O)=C(CSc4nncs4)CS[C@@H]32)c2ccc(OC(C)=O)c(OC(C)=O)c2)C(=O)C1=O` [Example 1, Sodium 7β-[D-2-(3,4-Diacetoxyphenyl)-2-[(4-ethyl-2,3-dioxopiperazin-1-yl)carbonylamino]acetamido]-7α-formamido-3-[(1,3,4-thiadiazol-2-yl)thiomethyl]ceph-3-em-4-carboxylate], the MIC was found to be 0.25 µg/mL in assay [1], 1 µg/mL in assay [2] and 0.25 µg/mL in assay [3].
As for `CCN1CCN(C(=O)N[C@@H](C(=O)N[C@]2(NC=O)C(=O)N3C(C(=O)O)=C(CSc4nncs4)CS[C@@H]32)c2ccc(O)c(O)c2)C(=O)C1=O` [Example 2, Sodium 7β-[D-2-(3,4-Dihydroxyphenyl)-2-[(4-ethyl-2,3-dioxopiperazin-1-yl)carbonylamino]acetamido]-7α-formamido-3-[(1,3,4-thiadiazol-2-yl)thiomethyl]ceph-3-em-4-carboxylate], the MIC amounted to 0.5 µg/mL in assay [1], 1 µg/mL in assay [2] and 0.12 µg/mL in assay [3].

For the origin of these results see patent US4835150A, “Cephem compounds” (Beecham Group p.l.c., priority 1985, dated 1989).
